Test results published in patent US10385070B2, “Chroman-spirocyclic piperidine amides as modulators of ion channels” (VERTEX PHARMACEUTICALS INCORPORATED, priority 2011, dated 2019).

Biological target: human NaV subtype, like NaV 1.7 (Homo sapiens, UniProt Q15858)
Assay: E-VIPR optical membrane potential assay with electrical stimulation
Assay type: cell-based
Conditions: active against one or more sodium channels; assay and NaV subtype not specified for Table 3; read-out: IC50 Binned Activity Data
Excerpt: Assays for Detecting and Measuring NaV Inhibition Properties of Compound E-VIPR Optical Membrane Potential Assay Method with Electrical Stimulation
Sodium channels are voltage-dependent proteins that can be activated by inducing membrane voltage changes by applying electric fields. The electrical stimulation instrument and methods of use are described in Ion Channel Assay Methods PCT/US01/21652, herein incorporated by reference and are referred to as E-VIPR. The instrument comprises a microtiter plate handler, an optical system for exciting the coumarin dye while simultaneously recording the coumarin and oxonol emissions, a waveform generator, a current- or voltage-controlled amplifier, and a device for inserting electrodes in well. Under integrated computer control, this instrument passes user-programmed electrical stimulus protocols to cells within the wells of the microtiter plate.
24 hours before the assay on E-VIPR, HEK cells expressing human NaV subtype, like NaV 1.7, are seeded in 384-well poly-lysine coated plates at 15,000-20,000 cells per well. Other subtypes are performed in an analogous mode in a cell line expressing the NaV of interest. HEK cells are grown in media (exact composition is specific to each cell type and NaV subtype) supplemented with 10% FBS (Fetal Bovine Serum, qualified; GibcoBRL #16140-071) and 1% Pen-Strep (Penicillin-Streptomycin; GibcoBRL #15140-122). Cells are grown in vented cap flasks, in 90% humidity and 10% CO2, to 100% confluence. They are usually split by trypsinization 1:10 or 1:20, depending on scheduling needs, and grown for 2-3 days before the next split.
100 mg/mL Pluronic F-127 (Sigma #P2443), in dry DMSO
Compound Plates: 384-well round bottom plate, e.g. Corning 384-well Polypropylene Round Bottom #3656
Cell Plates: 384-well tissue culture treated plate, e.g. Greiner #781091-1B
Bath1 buffer. Glucose 10 mM (1.8 g/L), Magnesium Chloride (Anhydrous), 1 mM (0.095 g/L), Calcium Chloride, 2 mM (0.222 g/L), HEPES 10 mM (2.38 g/L), Potassium Chloride, 4.5 mM (0.335 g/L), Sodium Chloride 160 mM (9.35 g/L).
Hexyl Dye Solution: Bath1 Buffer+0.5% β-cyclodextrin (make this prior to use, Sigma #C4767), 8 μM CC2-DMPE+2.5 μM DiSBAC6(3). To make the solution Add volume of 10% Pluronic F127 stock equal to volumes of CC2-DMPE+DiSBAC6(3). The order of preparation is first mix Pluronic and CC2-DMPE, then add DiSBAC6(3) while vortexing, then add Bath1+β-Cyclodextrin.
1) Pre-spot compounds (in neat DMSO) into compound plates. Vehicle control (neat DMSO), the positive control (20 mM DMSO stock tetracaine, 125 μM final in assay) and test compounds are added to each well at 160× desired final concentration in neat DMSO. Final compound plate volume will be 80 μL (80-fold intermediate dilution from 1 μL DMSO spot; 160-fold final dilution after transfer to cell plate). Final DMSO concentration for all wells in assay is 0.625%.
2) Prepare Hexyl Dye Solution.
3) Prepare cell plates. On the day of the assay, medium is aspirated and cells are washed three times with 100 μL of Bath1 Solution, maintaining 25 μL residual volume in each well.
4) Dispense 25 μL per well of Hexyl Dye Solution into cell plates. Incubate for 20-35 minutes at room temp or ambient conditions.
5) Dispense 80 μL per well of Bath1 into compound plates. Acid Yellow-17 (1 mM) is added and Potassium Chloride can be altered from 4.5 to 20 mM depending on the NaV subtype and assay sensitivity.
6) Wash cell plates three times with 100 μL per well of Bath1, leaving 25 μL of residual volume. Then transfer 25 uL per well from Compound Plates to Cell Plates. Incubate for 20-35 minutes at room temp/ambient condition
7) Read Plate on E-VIPR. Use the current-controlled amplifier to deliver stimulation wave pulses for typically 9 seconds and a scan rate of 400 Hz. A pre-stimulus recording is performed for 0.5 seconds to obtain the un-stimulated intensities baseline. […]

human NaV subtype, like NaV 1.7, sequence (Q15858 whole entry): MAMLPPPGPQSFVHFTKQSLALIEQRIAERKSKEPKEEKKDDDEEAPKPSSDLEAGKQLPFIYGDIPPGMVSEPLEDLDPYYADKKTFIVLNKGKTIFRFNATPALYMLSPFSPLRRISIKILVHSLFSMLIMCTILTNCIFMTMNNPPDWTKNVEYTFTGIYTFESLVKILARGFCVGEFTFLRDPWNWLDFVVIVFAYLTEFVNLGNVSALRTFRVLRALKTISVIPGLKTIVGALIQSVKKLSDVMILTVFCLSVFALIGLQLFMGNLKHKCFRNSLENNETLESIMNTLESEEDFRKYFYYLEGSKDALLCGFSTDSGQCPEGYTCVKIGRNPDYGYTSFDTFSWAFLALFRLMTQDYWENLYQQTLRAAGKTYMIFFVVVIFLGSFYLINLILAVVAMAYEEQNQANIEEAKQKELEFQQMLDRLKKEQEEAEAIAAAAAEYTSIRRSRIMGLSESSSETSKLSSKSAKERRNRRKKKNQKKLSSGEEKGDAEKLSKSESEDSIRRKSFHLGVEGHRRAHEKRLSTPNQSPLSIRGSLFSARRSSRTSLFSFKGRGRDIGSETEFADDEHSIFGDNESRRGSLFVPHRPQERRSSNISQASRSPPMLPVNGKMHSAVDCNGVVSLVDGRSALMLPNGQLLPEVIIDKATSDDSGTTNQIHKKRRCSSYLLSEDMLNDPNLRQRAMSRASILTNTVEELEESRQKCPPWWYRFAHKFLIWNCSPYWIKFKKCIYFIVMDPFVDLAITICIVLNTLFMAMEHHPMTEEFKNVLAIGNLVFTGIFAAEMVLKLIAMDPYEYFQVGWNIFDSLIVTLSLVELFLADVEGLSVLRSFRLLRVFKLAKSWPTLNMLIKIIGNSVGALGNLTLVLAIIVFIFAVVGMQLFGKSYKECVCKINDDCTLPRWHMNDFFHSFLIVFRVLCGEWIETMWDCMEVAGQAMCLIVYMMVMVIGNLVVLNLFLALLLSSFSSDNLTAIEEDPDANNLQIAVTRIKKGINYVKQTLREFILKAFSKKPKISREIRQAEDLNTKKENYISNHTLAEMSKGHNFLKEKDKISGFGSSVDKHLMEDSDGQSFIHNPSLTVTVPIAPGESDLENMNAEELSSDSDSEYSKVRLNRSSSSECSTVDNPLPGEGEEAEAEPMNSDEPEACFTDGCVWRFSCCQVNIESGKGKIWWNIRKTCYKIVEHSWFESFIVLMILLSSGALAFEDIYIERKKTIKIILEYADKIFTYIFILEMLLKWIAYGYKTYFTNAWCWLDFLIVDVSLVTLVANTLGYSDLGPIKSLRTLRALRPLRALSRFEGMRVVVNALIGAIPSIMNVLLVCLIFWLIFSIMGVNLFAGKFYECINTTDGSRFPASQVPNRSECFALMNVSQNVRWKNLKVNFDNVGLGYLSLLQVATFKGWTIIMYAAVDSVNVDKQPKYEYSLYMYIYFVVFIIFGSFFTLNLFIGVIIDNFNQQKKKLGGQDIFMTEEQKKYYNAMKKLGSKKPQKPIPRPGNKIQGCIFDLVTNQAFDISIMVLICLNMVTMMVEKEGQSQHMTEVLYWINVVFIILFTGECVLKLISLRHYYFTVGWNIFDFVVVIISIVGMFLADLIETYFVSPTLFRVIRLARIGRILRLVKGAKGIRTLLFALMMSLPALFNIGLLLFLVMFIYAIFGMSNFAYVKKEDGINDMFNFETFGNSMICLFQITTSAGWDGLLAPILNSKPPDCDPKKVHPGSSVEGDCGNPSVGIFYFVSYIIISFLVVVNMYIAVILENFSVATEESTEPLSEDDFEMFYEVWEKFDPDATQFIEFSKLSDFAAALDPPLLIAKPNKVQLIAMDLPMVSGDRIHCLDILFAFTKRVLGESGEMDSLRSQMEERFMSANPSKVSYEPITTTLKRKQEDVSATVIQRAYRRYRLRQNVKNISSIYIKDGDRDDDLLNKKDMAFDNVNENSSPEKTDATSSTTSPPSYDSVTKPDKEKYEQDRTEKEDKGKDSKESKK

SMILES	IC50
CC[C@H](C)Nc1ccc(C(=O)N2CCC3(CC2)C[C@@H](OC(C)C)c2cc(F)ccc2O3)nc1 [Compound 64]	≤ 2 µM
CCOCC1CC2(CCN(C(=O)c3ccc(OC(C)C)c(OC)c3)CC2)Oc2ccccc21 (centres unmarked) [Compound 56]	≤ 2 µM
CC(C)OC1CC2(CCN(C(=O)c3ccc(S(=O)(=O)CC4CC4)cn3)CC2)Oc2ccc(F)cc21 (centres unmarked) [Compound 30]	2 to 5 µM
CC(C)O[C@@H]1CC2(CCN(C(=O)c3ccc(S(=O)(=O)C4CC4)cc3)CC2)Oc2ccc(F)cc21 [Compound 82]	≤ 2 µM
CC(C)OCC1CC2(CCN(C(=O)c3ccc(OC(C)C)c(CO)c3)CC2)Oc2ccccc21 (centres unmarked) [Compound 108]	≤ 2 µM
COc1cc(C(=O)N2CCC3(CC2)CC(COC(F)F)c2ccccc2O3)ccc1OC(C)C (centres unmarked) [Compound 63]	≤ 2 µM
CC(C)Oc1ccc(C(=O)N2CCC3(CC2)C[C@@H](OC(C)C)c2cc(F)ccc2O3)cc1CN [Compound 8]	> 5 µM
CC(C)Oc1ccc(C(=O)N2CCC3(CC2)C[C@H](OC(C)C)c2ccccc2O3)cc1CO [Compound 42]	≤ 2 µM
CC(C)O[C@H]1CC2(CCN(C(=O)c3ccc4[nH]ncc4c3)CC2)Oc2ccccc21 [Compound 65]	2 to 5 µM
COc1ccc(C(=O)N2CCC3(CC2)C[C@@H](OC(C)C)c2ccccc2O3)cc1C [Compound 20]	≤ 2 µM
CC(C)Oc1ccc(C(=O)N2CCC3(CC2)C[C@@H](OC(C)C)c2ccccc2O3)c(F)c1 [Compound 74]	≤ 2 µM
CC[C@@H](C)Nc1ccc(C(=O)N2CCC3(CC2)C[C@@H](OC(C)C)c2cc(F)ccc2O3)nc1 [Compound 66]	≤ 2 µM
CC(C)O[C@@H]1CC2(CCN(C(=O)c3ccc(N4CCCC4)cn3)CC2)Oc2ccccc21 [Compound 102]	> 5 µM
CC(C)O[C@@H]1CC2(CCN(C(=O)c3ccc(S(=O)(=O)C(F)(F)F)cc3)CC2)Oc2ccc(F)cc21 [Compound 7]	≤ 2 µM
CC(C)Oc1ccc(C(=O)N2CCC3(CC2)CC(OC(C)C)c2ccccc2O3)cc1C#N (centres unmarked) [Compound 76]	≤ 2 µM
CC(C)O[C@@H]1CC2(CCN(C(=O)c3ccc(S(=O)(=O)C(F)F)cc3)CC2)Oc2ccc(F)cc21 [Compound 110]	≤ 2 µM

SMILES	IC50
CCOC1CC2(CCN(C(=O)c3ccc(OC(C)C)c(OC)c3)CC2)Oc2ccccc21 (centres unmarked) [Compound 12]	≤ 2 µM
COc1ccccc1C(=O)N1CCC2(CC1)CC(C(C)C)c1ccccc1O2 (centres unmarked) [Compound 40]	> 5 µM
COc1cc(C(=O)N2CCC3(CC2)CC(OC(C)C)c2ccccc2S3(=O)=O)ccc1OC(C)C (centres unmarked) [Compound 81]	≤ 2 µM
Cc1cc(C(=O)N2CCC3(CC2)C[C@@H](OC(C)C)c2ccccc2O3)ccc1OC(C)C [Compound 72]	≤ 2 µM
COc1cc(C(=O)N2CCC3(CC2)CC(Oc2cncc(C#N)c2)c2ccccc2O3)ccc1OC(C)C (centres unmarked) [Compound 3]	≤ 2 µM
COc1cc(C(=O)N2CCC3(CC2)Oc2ccccc2CC3OC(C)C)ccc1OC(C)C (centres unmarked) [Compound 51]	≤ 2 µM
COc1cc(C(=O)N2CCC3(CC2)CC(OCc2cccnc2)c2ccccc2O3)ccc1OC(C)C (centres unmarked) [Compound 105]	≤ 2 µM
COc1cc(C(=O)N2CCC3(CC2)CC(CSC)c2ccccc2O3)ccc1OC(C)C (centres unmarked) [Compound 83]	≤ 2 µM
COc1cc(C(=O)N2CCC3(CC2)CC(OC(C)C)c2ccc(F)cc2O3)ccc1OC(C)C (centres unmarked) [Compound 25]	≤ 2 µM
CC(C)Oc1ccc(C(=O)N2CCC3(CC2)C[C@@H](OC(C)C)c2ccccc2O3)cc1O [Compound 91]	≤ 2 µM
CC(C)O[C@@H]1CC2(CCN(C(=O)c3ccc(N4CCC[C@@H]4C)cn3)CC2)Oc2ccc(F)cc21 [Compound 67]	≤ 2 µM
CC(C)O[C@@H]1CC2(CCN(C(=O)c3ccc(S(=O)(=O)C(C)C)cc3)CC2)Oc2ccc(F)cc21 [Compound 68]	≤ 2 µM
CC(C)Oc1ccc(C(=O)N2CCC3(CC2)C[C@@H](OC(C)C)c2cc(F)ccc2O3)c(OC(F)F)c1 [Compound 55]	≤ 2 µM
CC(C)O[C@@H]1CC2(CCN(C(=O)c3ccc(NC4(C)COC4)cn3)CC2)Oc2ccc(F)cc21 [Compound 1]	≤ 2 µM
CC(C)O[C@@H]1CC2(CCN(C(=O)c3ccc(C4(O)CCCC4)cc3)CC2)Oc2ccc(F)cc21 [Compound 49]	≤ 2 µM

Second part, the molecule after the results:

IC50	SMILES
≤ 2 µM	CC(C)Oc1ccc(C(=O)N2CCC3(CC2)C[C@H](OC(C)C)c2ccccc2O3)cc1C#N [Compound 167]
≤ 2 µM	CC(C)O[C@@H]1CC2(CCN(C(=O)c3ccc(S(=O)(=O)C(C)C)cn3)CC2)Oc2ccc(F)cc21 [Compound 175]
≤ 2 µM	CC(C)O[C@@H]1CC2(CCN(C(=O)c3ccc(NC(C)(C)C)cn3)CC2)Oc2ccc(F)cc21 [Compound 174]
≤ 2 µM	COc1cc(C(=O)N2CCC3(CC2)CC(OCC2CC2)c2ccccc2O3)ccc1OC(C)C (centres unmarked) [Compound 158]
≤ 2 µM	COc1cc(C(=O)N2CCC3(CC2)CC(OC2CCC2)c2ccccc2O3)ccc1OC(C)C (centres unmarked) [Compound 172]
≤ 2 µM	COc1cc(C(=O)N2CCC3(CC2)CC(COC(C)C)c2ccccc2O3)ccc1C(C)(C)O (centres unmarked) [Compound 163]
≤ 2 µM	COc1cc(C(=O)N2CCC3(CC2)CC(OC)c2ccccc2O3)ccc1OC(C)C (centres unmarked) [Compound 142]
≤ 2 µM	CCc1ccc(C(=O)N2CCC3(CC2)C[C@@H](OC(C)C)c2cc(F)ccc2O3)cc1OC [Compound 126]
≤ 2 µM	COc1cc(C(=O)N2CCC3(CC2)CC(OC(C)C)c2ccccc2O3)ccc1OC(C)C (centres unmarked) [Compound 150]
2 to 5 µM	COc1cc(C(=O)N2CCC3(CCc4ccccc4O3)CC2)ccc1OC(C)C [Compound 162]
≤ 2 µM	CC1CCCN(c2ccc(C(=O)N3CCC4(CC3)C[C@@H](OC(C)C)c3cc(F)ccc3O4)nc2)C1 (some centres unmarked) [Compound 132]
≤ 2 µM	Cc1cc(C(=O)N2CCC3(CC2)C[C@H](OC(C)C)c2ccccc2O3)ccc1O [Compound 149]
≤ 2 µM	CC(C)Oc1ccc(C(=O)N2CCC3(CC2)C[C@@H](OC(C)C)c2cc(F)ccc2O3)cc1CN(C)C [Compound 173]
≤ 2 µM	COc1cc(O)ccc1C(=O)N1CCC2(CC1)C[C@H](OC(C)C)c1ccccc1O2 [Compound 144]
≤ 2 µM	CC(C)O[C@@H]1CC2(CCN(C(=O)c3ccc4c(cnn4C)c3)CC2)Oc2ccccc21 [Compound 137]
≤ 2 µM	CC(C)Oc1ccc(C(=O)N2CCC3(CC2)C[C@@H](OC(C)C)c2ccccc2O3)cc1F [Compound 140]
≤ 2 µM	COc1cc(C(=O)N2CCC3(CC2)C[C@@H](OC(C)C)c2cc(F)ccc2O3)ccc1OC(C)C [Compound 146]
≤ 2 µM	Cc1cc(C(F)F)n2ncc(C(=O)N3CCC4(CC3)C[C@H](OC(C)C)c3ccccc3O4)c2n1 [Compound 159]
≤ 2 µM	CC(C)OC1CC2(CCN(C(=O)c3ccc(C(C)(C)O)c(F)c3)CC2)Oc2cc(F)ccc21 (centres unmarked) [Compound 118]
≤ 2 µM	COc1cc(C(=O)N2CCC3(CC2)Oc2ccccc2C(OC(C)C)C3(C)C)ccc1OC(C)C (centres unmarked) [Compound 151]
≤ 2 µM	CCCNc1ccc(C(=O)N2CCC3(CC2)C[C@@H](OC(C)C)c2cc(F)ccc2O3)nc1 [Compound 178]
2 to 5 µM	COc1cc(C(=O)N2CCC3(CC2)C[C@@H](OC(C)C)c2ccccc2O3)ccc1OCCCO [Compound 116]
